Test systems include MDA-N; OVCAR-4; UACC-62; MCF7; 786-0; Malme-3M; SN12C; SW-620; RXF 393; TK-10; EKVX; U-251; NCI-H460; LOX IMVI; SK-OV-3; SF-268; HCT-116; K562; DU-145; MDA-MB-231.
Assay in all cases: NCI anticancer screen, dose series, 48 h

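Dose response: 5 concentrations. Exposure: 48 h. Format: 96-well plates. Endpoint: linear interpolation; highest concentration if not reached. GI50 marks 50% less growth.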 The source made the active and inactive calls. Rule as the data show it: active = GI50 up to about 1.1 µM and inactive = higher. Where only a bound is given, the exact number is not on record here.

As to `O=P(O)(O)CN1CCNCCN(CP(=O)(O)O)CCN(CP(=O)(O)O)CCNCC1`, the GI50 is 26400 µM (inactive) with MDA-N; > 100 µM (inactive) with OVCAR-4; > 100 µM (inactive) in the experiment with UACC-62; > 100 µM (inactive) with MCF7; > 100 µM (inactive) with 786-0; 0.296 µM (active) in the experiment with Malme-3M. Further, the GI50 in the experiment on SN12C is > 100 µM (inactive); in the experiment on SW-620, > 100 µM (inactive); with RXF 393 it was > 100000 µM (inactive); with TK-10, > 100 µM (inactive); in the experiment on EKVX, > 100 µM (inactive); in the experiment on U-251, > 100 µM (inactive). Besides, the GI50 is 42400 µM (inactive) in the experiment on NCI-H460; 91800 µM (inactive) in the experiment on LOX IMVI; > 100 µM (inactive) in the experiment on SK-OV-3; > 100000 µM (inactive) in the experiment on SF-268; 54600 µM (inactive) in the experiment with HCT-116; > 100 µM (inactive) with K562. Besides, the GI50 in the experiment on DU-145 and in the experiment with MDA-MB-231 was > 100 µM (inactive) throughout.
Take `Nn1c(Sc2nc3ccccc3c(=O)n2N)nc2ccccc2c1=O`: the GI50 in the experiment on MDA-N is 4.04 µM (inactive); in the experiment on OVCAR-4 it was 26.7 µM (inactive); with UACC-62 it was 11.5 µM (inactive); in the experiment on MCF7 it was 4.1 µM (inactive); with 786-0, 4.72 µM (inactive); in the experiment on Malme-3M it was 3.57 µM (inactive). The GI50 with SN12C is 5.75 µM (inactive); in the experiment on SW-620, 2.29 µM (inactive); in the experiment with RXF 393, 7.85 µM (inactive); in the experiment with TK-10, 21.2 µM (inactive); in the experiment with EKVX, 17.5 µM (inactive); in the experiment with U-251 it was 7.03 µM (inactive). Moreover, the GI50 with NCI-H460 was 19.5 µM (inactive); in the experiment on LOX IMVI it was 1.64 µM (inactive); in the experiment with SK-OV-3, 20.4 µM (inactive); in the experiment with SF-268, 8.49 µM (inactive); in the experiment with HCT-116, 2.99 µM (inactive); in the experiment on K562, 2.12 µM (inactive). Moreover, the GI50 in the experiment on DU-145 was 20.2 µM (inactive); with MDA-MB-231, 7.93 µM (inactive).
As for `CC(C)C[S+]1C2=C(CC(C)(C)CC2=O)[N-]c2ccccc21` (stereo not given), the GI50 with MDA-N, in the experiment with OVCAR-4, with UACC-62, in the experiment on MCF7, with 786-0 and with Malme-3M was > 100 µM (inactive) in each case. In addition, the GI50 with SN12C, with SW-620, in the experiment on RXF 393, with TK-10, with EKVX and in the experiment on U-251 was > 100 µM (inactive) each time. In addition, the GI50 in the experiment on NCI-H460 was > 100 µM (inactive); with LOX IMVI, > 100 µM (inactive); with SK-OV-3, > 100 µM (inactive); with SF-268 it was > 100 µM (inactive); in the experiment on HCT-116 it was > 100 µM (inactive); in the experiment with K562, 71.9 µM (inactive). The GI50 in the experiment on DU-145 and in the experiment with MDA-MB-231 was > 100 µM (inactive) each time.
As to `CN1CCN(c2cc3c(cc2F)c(=O)c(C(=O)O)cn3C2CC2)CC1CC#N` (stereo not given), the GI50 with MDA-N, in the experiment with OVCAR-4, in the experiment with UACC-62, in the experiment with MCF7, in the experiment on 786-0 and in the experiment on Malme-3M was > 100 µM (inactive) each time. For the same compound, the GI50 in the experiment on SN12C, in the experiment on SW-620, in the experiment on RXF 393, with TK-10, in the experiment with EKVX and with U-251 was > 100 µM (inactive) throughout. For the same compound, the GI50 in the experiment on NCI-H460, with LOX IMVI, with SK-OV-3, with SF-268, in the experiment on HCT-116 and in the experiment on K562 was > 100 µM (inactive) throughout. Further, the GI50 in the experiment on DU-145 and in the experiment with MDA-MB-231 was > 100 µM (inactive) each time.
In the case of `O=S(=O)(Nc1nc2ccccc2nc1Nc1ccc2ccccc2c1)c1ccccc1`, the GI50 in the experiment with MDA-N is 19.5 µM (inactive); with OVCAR-4, 4.67 µM (inactive); in the experiment with UACC-62 it was 4.67 µM (inactive); with MCF7, 10.9 µM (inactive); in the experiment with 786-0, 20.3 µM (inactive); in the experiment with Malme-3M, 4.53 µM (inactive). The GI50 in the experiment with SN12C is 10.4 µM (inactive); with SW-620, 7.38 µM (inactive); with RXF 393 it was 20.4 µM (inactive); with TK-10 it was 27.1 µM (inactive); in the experiment with EKVX, 11.7 µM (inactive); in the experiment with U-251 it was 5.78 µM (inactive). In addition, the GI50 in the experiment on NCI-H460 is 7.53 µM (inactive); with LOX IMVI, 17.8 µM (inactive); in the experiment on SK-OV-3 it was 7.78 µM (inactive); with SF-268 it was 17.9 µM (inactive); in the experiment with HCT-116, 7.8 µM (inactive); in the experiment with K562 it was 22.5 µM (inactive). The GI50 with DU-145 is 20.3 µM (inactive); with MDA-MB-231, 26.4 µM (inactive).
For the compound `Cc1cc(S(=O)(=O)Nc2nnc3c(Cl)cc(C(F)(F)F)cn23)c(S)cc1Cl`, the GI50 with MDA-N was 99.8 µM (inactive); with OVCAR-4, 66.5 µM (inactive); in the experiment on UACC-62 it was 48.9 µM (inactive); in the experiment on MCF7 it was > 61.1 µM (inactive); with 786-0, 57.1 µM (inactive); with Malme-3M, 91 µM (inactive). Besides, the GI50 with SN12C was > 96.6 µM (inactive); in the experiment on SW-620, > 68.4 µM (inactive); in the experiment on RXF 393, > 100 µM (inactive); in the experiment with TK-10, > 100 µM (inactive); in the experiment with EKVX it was 75 µM (inactive); in the experiment on U-251, 36 µM (inactive). In addition, the GI50 was 41.8 µM (inactive) in the experiment on NCI-H460; > 86.3 µM (inactive) with LOX IMVI; 44.9 µM (inactive) in the experiment with SK-OV-3; > 79.3 µM (inactive) with SF-268; 34.8 µM (inactive) in the experiment on HCT-116; 66.2 µM (inactive) in the experiment with K562. In addition, the GI50 with DU-145 is > 91.8 µM (inactive); in the experiment on MDA-MB-231, > 59.3 µM (inactive).
For `Cc1[nH]n(-c2nc(-c3ccccc3)cc(=O)[nH]2)c(=O)c1CCO`, the GI50 with MDA-N, in the experiment on OVCAR-4, in the experiment on UACC-62, in the experiment on MCF7, in the experiment with 786-0 and in the experiment on Malme-3M was > 100 µM (inactive) throughout. For the same compound, the GI50 with SN12C, with SW-620, with RXF 393, in the experiment with TK-10, in the experiment with EKVX and in the experiment with U-251 was > 100 µM (inactive) throughout. Further, the GI50 with NCI-H460, in the experiment with LOX IMVI, in the experiment on SK-OV-3, in the experiment on SF-268, in the experiment on HCT-116 and in the experiment with K562 was > 100 µM (inactive) in each case. Moreover, the GI50 with DU-145 and in the experiment with MDA-MB-231 was > 100 µM (inactive) in each case.
For `c1ccc2c(c1)-c1ccccc1C2N1CC2CCC(CC2)C1`, the GI50 in the experiment on MDA-N was 31.9 µM (inactive); with OVCAR-4, 31.9 µM (inactive); in the experiment with UACC-62, 19.9 µM (inactive); with MCF7, 17.5 µM (inactive); with 786-0, 35.1 µM (inactive); in the experiment on Malme-3M, 10.1 µM (inactive). Also, the GI50 with SN12C is 23.9 µM (inactive); in the experiment on SW-620 it was 22.1 µM (inactive); with RXF 393 it was 17.8 µM (inactive); in the experiment on TK-10 it was 37.4 µM (inactive); in the experiment with EKVX it was 21.7 µM (inactive); in the experiment on U-251, 17.1 µM (inactive). Moreover, the GI50 with NCI-H460 is 19.8 µM (inactive); in the experiment with LOX IMVI, 18.7 µM (inactive); in the experiment with SK-OV-3 it was 44.1 µM (inactive); in the experiment on SF-268 it was 15.5 µM (inactive); in the experiment on HCT-116, 20.7 µM (inactive); with K562 it was 17.3 µM (inactive). The GI50 was 29.9 µM (inactive) in the experiment on DU-145 and 18.8 µM (inactive) with MDA-MB-231.
As to `CCC1CC(=O)N(SCC(N)C(=O)O)C1=O` (stereo not given), the GI50 in the experiment on MDA-N, in the experiment with OVCAR-4, in the experiment with UACC-62, with MCF7, in the experiment on 786-0 and in the experiment with Malme-3M was > 100 µM (inactive) each time. Besides, the GI50 in the experiment with SN12C, in the experiment with SW-620, with RXF 393, in the experiment with TK-10, in the experiment on EKVX and with U-251 was > 100 µM (inactive) in each case. Further, the GI50 with NCI-H460, in the experiment with LOX IMVI, in the experiment with SK-OV-3, with SF-268, with HCT-116 and in the experiment on K562 was > 100 µM (inactive) each time. The GI50 in the experiment on DU-145 and with MDA-MB-231 was > 100 µM (inactive) in each case.
For the compound `O=[N+]([O-])c1cccc(-c2cn3c(n2)Cc2ccccc2C3)c1`, the GI50 was 50.8 µM (inactive) with MDA-N; > 100 µM (inactive) in the experiment with OVCAR-4; 53 µM (inactive) in the experiment on UACC-62; 3.88 µM (inactive) with MCF7; > 100 µM (inactive) with 786-0; > 100 µM (inactive) in the experiment with Malme-3M. In addition, the GI50 in the experiment on SN12C was > 100 µM (inactive); with SW-620 it was > 100 µM (inactive); in the experiment on RXF 393 it was > 100 µM (inactive); in the experiment with TK-10, > 100 µM (inactive); in the experiment with EKVX, 90.2 µM (inactive); with U-251, 39.7 µM (inactive). Further, the GI50 was 85.7 µM (inactive) with NCI-H460; 39.8 µM (inactive) in the experiment with LOX IMVI; > 100 µM (inactive) in the experiment on SK-OV-3; > 100 µM (inactive) with SF-268; 23.9 µM (inactive) in the experiment with HCT-116; > 100 µM (inactive) in the experiment with K562. The results for the GI50 in the experiment with DU-145 and with MDA-MB-231 were > 100 µM (inactive) and 18.8 µM (inactive), respectively.

(Values after ChEMBL document CHEMBL1201862, “PubChem BioAssay data set” (2004).)
